The target in assay [1] is human recombinant trypsin (r-h trypsin) (Homo sapiens (Human), UniProt P07477). The experiment in a line: Inhibitory activity of trypsin enzyme (human recombinant trypsin, BZiPAR fluorescent substrate). The assay is classed as biochemical. Particulars: human recombinant trypsin 0.088 μg/mL, 30 minutes at room temperature. The method, then: (§1) 1. Inhibitory Activity of Trypsin Enzyme in Humans and Mice
(§2) In the experiment, human recombinant trypsin (r-h trypsin; manufactured by WAKO, cat. #206-17171) and mouse trypsin (m-trypsin; purified from the mouse small intestine contents by the present Company) were used.
(§3) The outline of the measurement method is shown below.
(§4) The compound was dissolved in dimethyl sulfoxide (DMSO), and diluted to an arbitrary concentration (A). A was 100-fold diluted with a buffer (0.1 M Tris (pH 8.0), 0.15 M NaCl, 10 mM CaCl2, 0.05% Brij38) (B). The r-h trypsin was diluted with a buffer to 0.088 μg/mL, and the m-trypsin was diluted with a buffer to 1/50 (C). […] The substrate solution of a substrate for the enzyme reaction, BZiPAR, (Rhodamine Reference Substrate) was diluted with a buffer to 5 μmol/L (D). B; 5 μL, C; 5 μL, and D; 10 μL were added to a 384-plate, and incubated at room temperature for 30 minutes. The fluorescent signals were detected with Ex/Em=497/520 using Tecan Safire Fluorometer. […] Based on the obtained inhibitory rates, IC50 values (nM) were calculated from the non-linear regression. The test was carried out in the same manner, using camostat as a control compound.
(§5) Ex in the table represents the Example No. as denoted below.

Assay [2] deals with mouse trypsin (m-trypsin). The experiment in a line: Inhibitory activity of trypsin enzyme (mouse trypsin purified from small intestine contents, BZiPAR fluorescent substrate). The assay is classed as biochemical. As to conditions: mouse trypsin diluted 1/50, BZiPAR substrate, 30 minutes at room temperature.
Source text: as §1, §2
The method to extract the trypsin from the mouse small intestine is shown below.
The small intestine contents and the gastrointestinal tract of 10 mice were suspended in PBS using Polytron and subjected to centrifugation at 15,000×g several times. The supernatant was mixed at 4° C. for 16 hours with a Benzamidine Sepharose 4 Fast Flow Resin (GE Healthcare: #17-5123-10). After washing the resin with PBS, m-trypsin was eluted with a glycine elution buffer (pH 3.0).
as §3, §4, §5

The subject of the next assay is ICR mice. The experiment in a line: Increasing study of fecal protein concentration in mice. The assay is classed as in vivo. Particulars: Mus musculus, 5 mg/kg oral, feces collected 3 to 9 hours after, control = 1, read-out: protein increasing activity in feces, fold vs control. The method, then: 2. Increasing Study of Fecal Protein Concentration in Mice
For the experiment, 6-weeks old ICR mice (male) were used, and the experiment was carried out in five per group. After fasting the mice for 15 hours, the control group was forcibly orally administered with a 0.5% methyl cellulose (MC) solution, and the test drug group was forcibly orally administered (5 mg/kg) with a solution or suspension obtained by dissolving or suspending the compound in the 0.5% MC solution. The fasting was stopped immediately thereafter, free feeding (CE-2) started and then the feces were collected from after 3 hours to after 9 hours. All of the obtained feces were dissolved and suspended in 6 mL of distilled water, and centrifuged for 10 minutes at 3000 rpm. The protein concentration in the supernatant was measured by a Bradford method, and the amount of the protein in 1 g of feces was calculated by dividing the protein concentration in the feces by the total weight of feces. Further, the efficacy was investigated from the ratio to the control. For the compounds that were evaluated multiple times, the average values were calculated.
For some representative compounds, the protein increasing activities in feces are shown in Table 2, assuming a value for the control as 1. Ex in the table represents the Example No. as denoted below of the test compound.

SMILES strings stand for the structures. Counter-ions that a name gives are not always drawn. Like-named read-outs stand apart in the source and are kept apart here.

What is called IC50 is the midpoint of a concentration-inhibition curve. As for `N=C(N)Nc1ccc(C(=O)Oc2ccc(CC(=O)N[C@@H](Cc3ccccc3)C(=O)O)c(C3CC3)c2)cc1` [Example 34], the IC50 in assay [1] is 0.36 nM; in assay [2], 0.24 nM.
`N=C(N)Nc1ccc(C(=O)Oc2ccc(CC(=O)N[C@@H](Cc3ccc(C(=O)O)cc3)C(=O)O)c(Cl)c2)cc1` [Example 13]: the figures for the IC50 in assay [1] and in assay [2] were 0.91 nM and 0.84 nM, respectively. The response vs control in vivo at 5 mg/kg with ICR mice came to 185%.
The like results for `N=C(N)Nc1ccc(C(=O)Oc2ccc(CCC(=O)N(CCc3cccc(C(=O)O)c3)CC(=O)O)c(Cl)c2)cc1` [Example 58] were, in that order, 0.73 nM, 0.68 nM and 179%.
On the same counts, the results for `CN(C(=O)N(CC(=O)O)Cc1cccc(C(=O)O)c1)c1ccc(OC(=O)c2ccc(NC(=N)N)cc2)cc1Cl` [Example 61] are 0.23 nM, 0.14 nM and 167%.
Regarding `N=C(N)Nc1ccc(C(=O)Oc2ccc(CCC(=O)Nc3ccc(CC(=O)O)cc3)c(Cl)c2)cc1` [Example 11], the IC50 stood at 0.76 nM in assay [1] and 0.45 nM in assay [2].
On the same counts, the results for `N=C(N)Nc1ccc(C(=O)Oc2ccc(CC(=O)N[C@@H](Cc3ccccc3)C(=O)O)c(Cl)c2Cl)cc1` [Example 26] are 0.29 nM and 0.18 nM.
The like results for `N=C(N)Nc1ccc(C(=O)Oc2ccc(CCCC(=O)N(CC(=O)O)Cc3cccc(C(=O)O)c3)c(Cl)c2)cc1` [Example 51] were, in that order, 0.46 nM and 0.47 nM.
The like results for `N=C(N)Nc1ccc(C(=O)Oc2ccc(CC(=O)N[C@@H](Cc3cccc(F)c3)C(=O)O)c(Cl)c2)cc1` [Example 30] were, in that order, 0.26 nM and 0.19 nM.
Consider `N=C(N)Nc1ccc(C(=O)Oc2ccc(CCCCC(=O)N[C@@H](Cc3ccccc3)C(=O)O)c(Cl)c2)cc1` [Example 37], for which the IC50 worked out at 0.38 nM in assay [1] and 0.34 nM in assay [2].
On the same counts, the results for `N=C(N)Nc1ccc(C(=O)Oc2ccc3nc(C(=O)N[C@@H](Cc4ccc(OCC(=O)O)cc4)C(=O)O)ccc3c2)cc1` [Example 71] are 0.18 nM and 0.23 nM.
As to `N=C(N)Nc1ccc(C(=O)Oc2ccc(CC(=O)N[C@@H](Cc3ccc(C(F)(F)F)cc3)C(=O)O)c(Cl)c2)cc1` [Example 31], the figures for the IC50 in assay [1] and in assay [2] were 0.31 nM and 0.34 nM, respectively.
Take `N=C(N)Nc1ccc(C(=O)Oc2ccc3cc(C(=O)N[C@@H](Cc4ccccc4)C(=O)O)[nH]c3c2)cc1` [Example 119]: in the assay on ICR mice (po, 9 h), the response vs control in vivo at 5 mg/kg was found to be 139%.
For the compound `N=C(N)Nc1ccc(C(=O)Oc2ccc(CC(=O)N[C@@H](Cc3ccccc3F)C(=O)O)c(Cl)c2)cc1` [Example 29], the IC50 in assay [1] amounted to 0.31 nM; in assay [2], 0.21 nM.
On the same counts, the results for `N=C(N)Nc1ccc(C(=O)Oc2ccc(CCC(=O)N(Cc3cccc(C(=O)O)c3)Cc3cccc(C(=O)O)c3)c(Cl)c2)cc1` [Example 93] are 0.4 nM and 0.56 nM.
On the same counts, the results for `N=C(N)Nc1ccc(C(=O)Oc2ccc(CC(=O)N[C@@H](Cc3ccc(O)cc3)C(=O)O)c(Cl)c2)cc1` [Example 1, N-({4-[(4-carbamimidamidobenzoyl)oxy]-2-chlorophenyl}acetyl)-L-tyrosine hydrochloride] are 0.17 nM and 0.19 nM.
In the case of `N=C(N)Nc1ccc(C(=O)Oc2ccc(CCC(=O)N(CC(=O)O)c3cccc(CC(=O)O)c3)c(Cl)c2)cc1` [Example 41], the response vs control in vivo at 5 mg/kg in the assay on ICR mice (po, 9 h) was found to be 177%.
On to `N=C(N)Nc1ccc(C(=O)Oc2ccc(CC(=O)N[C@@H](Cc3c[nH]cn3)C(=O)O)c(Cl)c2)cc1` [Example 2, N-({4-[(4-carbamimidamidobenzoyl)oxy]-2-chlorophenyl}acetyl)-L-histidine 2 hydrochloride], for which the results for the IC50 in assay [1] and in assay [2] were 0.92 nM and 0.49 nM, respectively.
On the same counts, the results for `N=C(N)Nc1ccc(C(=O)Oc2ccc(CCC(=O)NC(Cc3ccccc3)C(=O)O)c(Cl)c2)cc1` (stereo not shown) [Example 131] are 0.51 nM and 0.4 nM.
The like results for `N=C(N)Nc1ccc(C(=O)Oc2cc(Cl)c(CC(=O)N[C@@H](Cc3ccccc3)C(=O)O)c(Cl)c2)cc1` [Example 27] were, in that order, 0.26 nM and 0.19 nM.
`N=C(N)Nc1ccc(C(=O)Oc2ccc(CC(=O)N[C@@H](Cc3ccc(Cl)cc3)C(=O)O)c(Cl)c2)cc1` [Example 15]: the response vs control in vivo at 5 mg/kg in the assay on ICR mice (po, 9 h) worked out at 167%.
Take `N=C(N)Nc1ccc(C(=O)Oc2ccc(CCC(=O)N(CC(=O)O)Cc3ccccc3)c(Cl)c2)cc1` [Example 62]: the figures for the IC50 in assay [1] and in assay [2] were 0.29 nM and 0.17 nM, respectively.
Take `N=C(N)Nc1ccc(C(=O)Oc2ccc(CCC(=O)N(CC(=O)O)Cc3csc(C(=O)O)c3)c(Cl)c2)cc1` [Example 63]: the response vs control in vivo at 5 mg/kg in the assay with ICR mice (po, 9 h) turned out to be 184%.
As for `N=C(N)Nc1ccc(C(=O)Oc2ccc(CC(=O)N[C@@H](Cc3ccccc3)C(=O)O)c(C(F)(F)F)c2)cc1` [Example 25], the values for the IC50 in assay [1] and in assay [2] were 0.29 nM and 0.25 nM, respectively.
The like results for `N=C(N)Nc1ccc(C(=O)Oc2ccc(CC(=O)N(CC(=O)O)[C@@H](Cc3ccccc3)C(=O)O)c(Cl)c2)cc1` [Example 40] were, in that order, 0.5 nM and 0.45 nM.
Turning to `CN(C(=O)Cc1ccc(OC(=O)c2ccc(NC(=N)N)cc2)cc1Cl)[C@@H](Cc1ccccc1)C(=O)O` [Example 33], the IC50 is 0.88 nM in assay [1] and 0.6 nM in assay [2].
The like results for `CN(C(=O)CN(CC(=O)O)Cc1cccc(C(=O)O)c1)c1ccc(OC(=O)c2ccc(NC(=N)N)cc2)cc1Cl` [Example 94] were, in that order, 0.42 nM and 0.39 nM.
As for `COc1ccc(C[C@H](NC(=O)Cc2ccc(OC(=O)c3ccc(NC(=N)N)cc3)cc2Cl)C(=O)O)cc1` [Example 16], the response vs control in vivo at 5 mg/kg with ICR mice (po, 9 h) amounted to 170%.
`N=C(N)Nc1ccc(C(=O)Oc2ccc3nc(C(=O)Nc4ccc(CC(=O)O)cc4)ccc3c2)cc1` [Example 22]: the IC50 in assay [1] was determined as 0.29 nM; in assay [2], 0.2 nM.
`N=C(N)Nc1ccc(C(=O)Oc2ccc3nc(C(=O)N(CC(=O)O)Cc4ccc(CC(=O)O)cc4)ccc3c2)cc1` [Example 113]: the response vs control in vivo at 5 mg/kg in the assay with ICR mice (po, 9 h) worked out at 193%.
For `N=C(N)Nc1ccc(C(=O)Oc2cc(F)c(CC(=O)N[C@@H](Cc3ccccc3)C(=O)O)c(F)c2)cc1` [Example 24], the values for the IC50 in assay [1] and in assay [2] were 0.21 nM and 0.17 nM, respectively.
With `N=C(N)Nc1ccc(C(=O)Oc2ccc(CC(=O)N(CCC(=O)O)[C@@H](Cc3ccccc3)C(=O)O)c(Cl)c2)cc1` [Example 54], the IC50 is 0.42 nM in assay [1] and 0.38 nM in assay [2].
The like results for `N=C(N)Nc1ccc(C(=O)Oc2ccc(CCN(CC(=O)O)Cc3cccc(C(=O)O)c3)c(Cl)c2)cc1` [Example 65] were, in that order, 0.4 nM and 0.45 nM.
As to `N=C(N)Nc1ccc(C(=O)Oc2ccc(CC(=O)N[C@@H](Cc3ccccc3)C(=O)O)c(-c3ccccc3)c2)cc1` [Example 17], the figures for the IC50 in assay [1] and in assay [2] were 0.43 nM and 0.27 nM, respectively.
With `N=C(N)Nc1ccc(C(=O)Oc2ccc(CC(=O)N(CCc3ccccc3)CC(=O)O)c(Cl)c2)cc1` [Example 35], the IC50 in assay [1] amounted to 0.44 nM; in assay [2] it was 0.28 nM.
The like results for `N=C(N)Nc1ccc(C(=O)Oc2ccc(CCN(CC(=O)O)C(=O)Cc3cccc(C(=O)O)c3)c(Cl)c2)cc1` [Example 66] were, in that order, 0.35 nM and 0.45 nM.

The record behind these values is patent publication US9199927B2, “Guanidinobenzoic acid compound” (Astellas Pharma Inc., priority 2011, dated 2015).
